Assay: Inhibition of Aurora A kinase in human HeLa Kyoto cells assessed as induction of defective chromosome alignment during metaphase incubated for 20 hrs

- EC50: 6 µM
SMILES: CCc1ccc(/N=C2\S/C(=C\c3ccnc(Nc4ccc(C(=O)O)cn4)c3)C(=O)N2C)cc1

From BindingDB's records for doi:10.1021/acs.jmedchem.6b00709 (University of Berne, 2016)
